Here are results for six compounds from patent US8518715B2, “Bifunctional polyazamacrocyclic chelating agents” (Nordion (Canada) Inc., priority 2006, dated 2013).

Assay type in all cases: physicochemical
A short description of series [1]: Effect of [ligand]/[177Lu3+] on the percent complexation. The method, then:
(§1) A polyazamacrocyclic ligand ((L)-p-NO2-Bz-PCTA; (D)-p-NO2-Bz-PCTA; (L)-p-NCS-Bz-PCTA; (±)-p-NO2-Bz-DOTA, (±)-NPCTA, (±)-OXO and (L)-p-NO2-Bz-OXO) was combined with a metal ion (^90Y^3+, ^111In^3+, ^177Lu^3+) at room temperature in buffer at a molar ratio of the ligand to the metal ion of 100:1 for kinetic studies, 200:1 for stability studies or at values ranging from 2:1 to 200:1 for the molar ratio studies.
(§2) Complexation studies involving ^90Y^3+ and ^111In^3+ were conducted with 50-100 mM sodium acetate buffer, pH 5.0-7.0, while complexation studies involving ^177Lu^3+ were performed with 50 mM-100 mM sodium acetate buffer, pH 4-5.
(§3) 1 μL samples were taken at 10 minute intervals for kinetic studies, after 60 minutes in experiments studying the effect of the value of [ligand]/[metal ion] on the % complexation of the ligand, and at spaced intervals of 1-3 days for experiments studying the stability of complexes formed using the ligand of the present invention. […] The silica gel paper is cut in half and each half is measured in a gamma well counter. […] Each result shown in FIGS. 4-9 is the average of three separate trials.

Series [2] in a line: Kinetics of complexation of polyazamacrocyclic ligand with 90Y3+. The conditions noted are these: ^90Y^3+; for initial rate / kinetics of complexation (in words): ligand:metal 100:1, room temperature; for percent complexation of metal ion (in words): ligand:metal 100:1. The procedure: as §1, §2, §3
A short description of series [3]: Effect of [ligand]/[111In3+] on the percent complexation. The method, then: as §1, §2, §3
Series [4] is described as follows: Kinetics of complexation of polyazamacrocyclic ligand with 177Lu3+. The conditions noted are these: ^177Lu^3+; for time after which the maximum percent of complexation was observed / percent complexation of metal ion (in words): ligand:metal 100:1; for initial rate / kinetics of complexation (in words): ligand:metal 100:1, room temperature; for percent complexation after 10 minutes: ligand:metal 100:1, 10 minutes. The procedure:
as §1, §2, §3

A short description of series [5]: Kinetics of complexation of polyazamacrocyclic ligand with 111In3+. The conditions noted are these: ^111In^3+; for initial rate / kinetics of complexation (in words): ligand:metal 100:1, room temperature. The method, then: as §1, §2, §3
Series [6] can be described thus: Effect of [ligand]/[90Y3+] on the percent complexation. The procedure:
as §1, §2, §3

The mark [7] stands for this setting: molar ratio of ligand/^111In^3+ of 5:1, after 60 minutes.

A value given as a limit tells only on which side of the number the result lay.

For the compound `COc1ccc([N+](=O)[O-])cc1C(C(=O)O)N1CCN(CC(=O)O)Cc2cccc(n2)CN(CC(=O)O)CC1` (racemic) [(±)-NPCTA, 2,2′-(6-(carboxy(2-methoxy-5-nitrophenyl)methyl)-3,6,9,15-tetraazabicyclo[9.3.1]pentadeca-1(15),11,13-triene-3,9-diyl)diacetic acid], the percent complexation in series [1] (molar ratio of ligand/^177Lu^3+ of greater than 20:1, after 60 minutes) is < 95%; in series [3] (setting [7]), ~76%; in series [6] (molar ratio of ligand/^90Y^3+ of greater than 20:1, after 60 minutes), < 90%. For the same compound, the “initial rate / kinetics of complexation (in words)” value (shortened to “initial rate / kinetics”) in series [2], in series [4] and in series [5] was “relatively slower” in each case. Besides, the “time after which the maximum percent of complexation was observed” value in series [4] worked out at 50 min.

For the compound `O=C(O)CN1CCOCCN(CC(=O)O)CCN(CC(=O)O)CC1` (racemic) [(±)-OXO, 2,2′,2″-(1-oxa-4,7,10-triazacyclododecane-4,7,10-triyl)triacetic acid], the “percent complexation of metal ion (in words)” value in series [2] and in series [4] was “highest” each time. For the same compound, the “percent complexation after 10 minutes” value in series [4] is reported as ~95%. Moreover, the “initial rate / kinetics” value in series [5] is given as “fastest”.

`O=C(O)CN1CCN(CC(=O)O)CCN(CC(=O)O)C(Cc2ccc([N+](=O)[O-])cc2)CN(CC(=O)O)CC1` (racemic) [(±)-p-NO2-Bz-DOTA, 2,2′,2″,2′″-(2-(4-nitrobenzyl)-1,4,7,10-tetraazacyclododecane-1,4,7,10-tetrayl)tetraacetic acid]: in series [2], the “percent complexation of metal ion (in words)” value was “highest”. The percent complexation in series [3] (setting [7]) is reported as ~94%. Moreover, the percent complexation in series [3] (molar ratio of ligand/^111In^3+ of greater than 20:1, after 60 minutes) was ≤ 95%. Further, in series [4], the “percent complexation of metal ion (in words)” value is on record as “highest”, the “time after which the maximum percent of complexation was observed” value came out at 40 min and the “percent complexation after 10 minutes” value is recorded as ~95%. Further, in series [5] (ligand:metal 100:1, after 40 minutes), the “maximum values of complexation after 40 minutes” value is ~89%.

Take `O=C(O)CN1CCN(CC(=O)O)C[C@@H](Cc2ccc([N+](=O)[O-])cc2)N(CC(=O)O)Cc2cccc(n2)C1` [(D)-p-NO2-Bz-PCTA, 2,2′,2″-((4R)-4-(4-nitrobenzyl)-3,6,9,15-tetraazabicyclo[9.3.1]pentadeca-1(15),11,13-triene-3,6,9-triyl)triacetic acid]: the percent complexation in series [3] (molar ratio of ligand/^111In^3+ of 10:1, after 60 minutes) is ~95%; in series [6] (molar ratio of ligand/^90Y^3+ of 10:1, after 60 minutes), ~95%. In addition, the “percent complexation after 10 minutes” value in series [4] is given as ~91%.

With `O=C(O)CN1CCOCCN(CC(=O)O)[C@@H](Cc2ccc([N+](=O)[O-])cc2)CN(CC(=O)O)CC1` [(L)-p-NO2-Bz-OXO, (S)-2,2′,2″-(5-(4-nitrobenzyl)-1-oxa-4,7,10-triazacyclododecane-4,7,10-triyl)triacetic acid], the “percent complexation of metal ion (in words)” value in series [2] and in series [4] was “highest” each time. The “initial rate / kinetics” value in series [4] and in series [5] was “fastest” in each case.

Turning to `O=C(O)CN1CCN(CC(=O)O)C[C@H](Cc2ccc([N+](=O)[O-])cc2)N(CC(=O)O)Cc2cccc(n2)C1` [(L)-p-NO2-Bz-PCTA, 2,2′,2″-((4S)-4-(4-nitrobenzyl)-3,6,9,15-tetraazabicyclo[9.3.1]pentadeca-1(15),11,13-triene-3,6,9-triyl)triacetic acid], the percent complexation in series [1] (molar ratio of ligand/^177Lu^3+ of 5:1, after 60 minutes) is on record as ~95%. In addition, the “percent complexation of metal ion (in words)” value in series [2] and in series [4] was “highest” in each case. Also, the “percent complexation after 10 minutes” value was 95% in series [2] (ligand:metal 100:1, 10 minutes) and ~95% in series [5] (ligand:metal 100:1, 10 minutes). For the same compound, the “initial rate / kinetics” value in series [2] and in series [4] was “fastest” each time.
